Patent US20260262643A1, “HERBICIDAL BENZOXAZINES” (FMC CORPORATION, priority 2022, published 2026)

Legend:
[1] = tested on: barnyardgrass; test: Test C preemergence; format: in vivo, Echinochloa crusgalli; conditions: for Barnyardgrass plant response rating: 500 g ai/ha, preemergence, 0 to 100 scale (0 no effect, 100 complete control); for Plant response rating, Barnyardgrass: Preemergence, 125 g ai/ha, 0 to 100 scale, 0 no effect, 100 complete control
Summary of the method: (§1)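 Visual injury score, 0–100 (100 = complete control), taken 10 days after treatment relative to untreated controls. Pre: directed spray onto soil over sown seeds. Post: foliar spray at one- to two-leaf stage, 2–10 cm. Solvent/surfactant formulation; loam–sand soil; greenhouse.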

[2] = tested on: blackgrass; test: Test C preemergence; format: in vivo, Alopecurus myosuroides; conditions: for Blackgrass plant response rating: 500 g ai/ha, preemergence, 0 to 100 scale (0 no effect, 100 complete control); for Plant response rating, Blackgrass: Preemergence, 125 g ai/ha, 0 to 100 scale, 0 no effect, 100 complete control
Summary of the method: as §1

[3] = tested on: corn; test: Test C preemergence; format: in vivo, Zea mays; conditions: for Corn plant response rating: 500 g ai/ha, preemergence, 0 to 100 scale (0 no effect, 100 complete control); for Plant response rating, Corn: Preemergence, 125 g ai/ha, 0 to 100 scale, 0 no effect, 100 complete control
Summary of the method: as §1

[4] = tested on: green foxtail; test: Test C preemergence; format: in vivo, Setaria viridis; conditions: for Foxtail, Green plant response rating: 500 g ai/ha, preemergence, 0 to 100 scale (0 no effect, 100 complete control); for Plant response rating, Foxtail, Green: Preemergence, 125 g ai/ha, 0 to 100 scale, 0 no effect, 100 complete control
Summary of the method: as §1

[5] = tested on: kochia; test: Test C preemergence; format: in vivo, Bassia scoparia; conditions: for Kochia plant response rating: 500 g ai/ha, preemergence, 0 to 100 scale (0 no effect, 100 complete control); for Plant response rating, Kochia: Preemergence, 125 g ai/ha, 0 to 100 scale, 0 no effect, 100 complete control
Summary of the method: as §1

[6] = tested on: oat, wild; test: Test C preemergence; format: in vivo, Avena fatua; conditions: for Oat, Wild plant response rating: 500 g ai/ha, preemergence, 0 to 100 scale (0 no effect, 100 complete control); for Plant response rating, Oat, Wild: Preemergence, 125 g ai/ha, 0 to 100 scale, 0 no effect, 100 complete control
Summary of the method: as §1

[7] = tested on: pigweed, palmer; test: Test C preemergence; format: in vivo, Amaranthus palmeri; conditions: for Pigweed, Palmer plant response rating: 500 g ai/ha, preemergence, 0 to 100 scale (0 no effect, 100 complete control); for Plant response rating, Pigweed, Palmer: Preemergence, 125 g ai/ha, 0 to 100 scale, 0 no effect, 100 complete control
Summary of the method: as §1

[8] = tested on: ragweed; test: Test C preemergence; format: in vivo, Ambrosia artemisiifolia; conditions: for Ragweed plant response rating: 500 g ai/ha, preemergence, 0 to 100 scale (0 no effect, 100 complete control); for Plant response rating, Ragweed: Preemergence, 125 g ai/ha, 0 to 100 scale, 0 no effect, 100 complete control
Summary of the method: as §1

[9] = tested on: ryegrass, Italian; test: Test C preemergence; format: in vivo, Lolium multiflorum; conditions: for Ryegrass, Italian plant response rating: 500 g ai/ha, preemergence, 0 to 100 scale (0 no effect, 100 complete control); for Plant response rating, Ryegrass, Italian: Preemergence, 125 g ai/ha, 0 to 100 scale, 0 no effect, 100 complete control
Summary of the method: as §1

[10] = tested on: soybean; test: Test C preemergence; format: in vivo, Glycine max; conditions: for Soybean plant response rating: 500 g ai/ha, preemergence, 0 to 100 scale (0 no effect, 100 complete control); for Plant response rating, Soybean: Preemergence, 125 g ai/ha, 0 to 100 scale, 0 no effect, 100 complete control
Summary of the method: as §1

[11] = tested on: wheat; test: Test C preemergence; format: in vivo, Triticum aestivum; conditions: for Wheat plant response rating: 500 g ai/ha, preemergence, 0 to 100 scale (0 no effect, 100 complete control); for Plant response rating, Wheat: Preemergence, 125 g ai/ha, 0 to 100 scale, 0 no effect, 100 complete control
Summary of the method: as §1

[12] = tested on: barnyardgrass; test: Test C postemergence; format: in vivo, Echinochloa crusgalli; conditions: 10 days, 0 to 100 scale (0 no effect, 100 complete control)
Summary of the method: as §1

[13] = tested on: blackgrass; test: Test C postemergence; format: in vivo, Alopecurus myosuroides; conditions: 10 days, 0 to 100 scale (0 no effect, 100 complete control)
Summary of the method: as §1

[14] = tested on: corn; test: Test C postemergence; format: in vivo, Zea mays; conditions: 10 days, 0 to 100 scale (0 no effect, 100 complete control)
Summary of the method: as §1

[15] = tested on: green foxtail; test: Test C postemergence; format: in vivo, Setaria viridis; conditions: 10 days, 0 to 100 scale (0 no effect, 100 complete control)
Summary of the method: as §1

[16] = tested on: kochia; test: Test C postemergence; format: in vivo, Bassia scoparia; conditions: 10 days, 0 to 100 scale (0 no effect, 100 complete control)
Summary of the method: as §1

[17] = tested on: oat, wild; test: Test C postemergence; format: in vivo, Avena fatua; conditions: 10 days, 0 to 100 scale (0 no effect, 100 complete control)
Summary of the method: as §1

[18] = tested on: pigweed, palmer; test: Test C postemergence; format: in vivo, Amaranthus palmeri; conditions: 10 days, 0 to 100 scale (0 no effect, 100 complete control)
Summary of the method: as §1

[19] = tested on: ragweed; test: Test C postemergence; format: in vivo, Ambrosia artemisiifolia; conditions: 0 to 100 scale (0 no effect, 100 complete control), 10 days
Summary of the method: as §1

[20] = tested on: ryegrass, Italian; test: Test C postemergence; format: in vivo, Lolium multiflorum; conditions: 0 to 100 scale (0 no effect, 100 complete control), 10 days
Summary of the method: as §1

[21] = tested on: soybean; test: Test C postemergence; format: in vivo, Glycine max; conditions: 0 to 100 scale (0 no effect, 100 complete control), 10 days
Summary of the method: as §1

[22] = tested on: wheat; test: Test C postemergence; format: in vivo, Triticum aestivum; conditions: 0 to 100 scale (0 no effect, 100 complete control), 10 days
Summary of the method: as §1

[23] = tested on: galium; test: Test C postemergence; format: in vivo, Galium aparine; conditions: 10 days, 0 to 100 scale (0 no effect, 100 complete control)
Summary of the method: as §1

[24] = tested on: horseweed; test: Test C postemergence; format: in vivo, Erigeron canadensis; conditions: 10 days, 0 to 100 scale (0 no effect, 100 complete control)
Summary of the method: as §1

[25] = tested on: barnyardgrass; test: Test D flooded paddy test; format: in vivo, Echinochloa crus-galli; conditions: 250 g ai/ha, applied to paddy water, visual rating after 13 to 14 days, scale 0 to 100 (0 no effect, 100 complete control)
Summary of the method: (§2)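 At the 2-leaf stage, floodwater 3 cm deep received the test compound; that depth persisted throughout. Plants scored visually 13 to 14 days on, 0 (no effect) to 100 (complete control), dash indicating no result.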

[26] = tested on: ducksalad; test: Test D flooded paddy test; format: in vivo, Heteranthera limosa; conditions: 250 g ai/ha, applied to paddy water, visual rating after 13 to 14 days, scale 0 to 100 (0 no effect, 100 complete control)
Summary of the method: as §2

[27] = tested on: rice; test: Test D flooded paddy test; format: in vivo, Oryza sativa; conditions: 250 g ai/ha, applied to paddy water, visual rating after 13 to 14 days, scale 0 to 100 (0 no effect, 100 complete control)
Summary of the method: as §2

[28] = tested on: sedge, umbrella; test: Test D flooded paddy test; format: in vivo, Cyperus difformis; conditions: 250 g ai/ha, applied to paddy water, visual rating after 13 to 14 days, scale 0 to 100 (0 no effect, 100 complete control)
Summary of the method: as §2

Cc1ccc(-n2cnc(CS(C)(=N)=O)n2)cc1C(=O)N1C[C@H](C)Oc2c(Cl)cccc21 (stereo partly drawn) [Compound 403]
50: Corn plant response rating [3] | Wheat plant response rating [11] | Plant response rating, Foxtail, Green ([15]; Postemergence, 125 g ai/ha) | Plant response rating, Ryegrass, Italian ([20]; Postemergence, 125 g ai/ha) | Plant response rating, Ducksalad (Flood) [26]
45: Plant response rating, Sedge, Umbrella (Flood) [28]
30: Plant response rating, Pigweed, Palmer [7] | Plant response rating, Ragweed [8] | Plant response rating, Barnyardgrass ([12]; Postemergence, 125 g ai/ha) | Plant response rating, Oat, Wild ([17]; Postemergence, 125 g ai/ha)
80: Blackgrass plant response rating [2] | Ragweed plant response rating [8] | Plant response rating, Soybean [10] | Plant response rating, Blackgrass ([13]; 500 g ai/ha, postemergence) | Plant response rating, Corn ([14]; 500 g ai/ha, postemergence) | Plant response rating, Kochia ([16]; 500 g ai/ha, postemergence) | Plant response rating, Kochia ([16]; Postemergence, 125 g ai/ha)
20: Plant response rating, Blackgrass ([13]; Postemergence, 125 g ai/ha) | Plant response rating, Corn ([14]; Postemergence, 125 g ai/ha) | Plant response rating, Wheat ([22]; Postemergence, 125 g ai/ha)
100: Foxtail, Green plant response rating [4] | Kochia plant response rating [5] | Pigweed, Palmer plant response rating [7] | Plant response rating, Pigweed, Palmer ([18]; 500 g ai/ha, postemergence) | Plant response rating, Soybean ([21]; Postemergence, 125 g ai/ha) | Plant response rating, Galium ([23]; 500 g ai/ha, postemergence) | Plant response rating, Galium ([23]; Postemergence, 125 g ai/ha)
70: Barnyardgrass plant response rating [1] | Plant response rating, Barnyardgrass ([12]; 500 g ai/ha, postemergence) | Plant response rating, Ragweed ([19]; Postemergence, 125 g ai/ha)
90: Plant response rating, Foxtail, Green [4] | Ryegrass, Italian plant response rating [9] | Soybean plant response rating [10] | Plant response rating, Foxtail, Green ([15]; 500 g ai/ha, postemergence) | Plant response rating, Oat, Wild ([17]; 500 g ai/ha, postemergence) | Plant response rating, Pigweed, Palmer ([18]; Postemergence, 125 g ai/ha)
40: Plant response rating, Barnyardgrass [1] | Oat, Wild plant response rating [6] | Plant response rating, Ryegrass, Italian [9]
0: Plant response rating, Oat, Wild [6] | Plant response rating, Wheat [11] | Plant response rating, Barnyardgrass (Flood) [25] | Plant response rating, Rice (Flood) [27]
10: Plant response rating, Corn [3]
60: Plant response rating, Blackgrass [2] | Plant response rating, Kochia [5] | Plant response rating, Horseweed ([24]; 500 g ai/ha, postemergence)

Cc1ccc(-n2cnc(C#N)n2)cc1C(=O)N1C[C@H](C)Oc2c(Cl)cccc21 [Compound 363]
50: Plant response rating, Barnyardgrass ([12]; 500 g ai/ha, postemergence) | Plant response rating, Foxtail, Green ([15]; 500 g ai/ha, postemergence) | Plant response rating, Ragweed ([19]; 500 g ai/ha, postemergence) | Plant response rating, Ryegrass, Italian ([20]; 500 g ai/ha, postemergence)
80: Plant response rating, Pigweed, Palmer [7] | Ragweed plant response rating [8] | Plant response rating, Kochia ([16]; 500 g ai/ha, postemergence)
30: Blackgrass plant response rating [2] | Plant response rating, Ryegrass, Italian [9] | Plant response rating, Blackgrass ([13]; Postemergence, 125 g ai/ha) | Plant response rating, Foxtail, Green ([15]; Postemergence, 125 g ai/ha)
60: Barnyardgrass plant response rating [1] | Plant response rating, Blackgrass ([13]; 500 g ai/ha, postemergence)
100: Foxtail, Green plant response rating [4] | Plant response rating, Foxtail, Green [4] | Pigweed, Palmer plant response rating [7] | Plant response rating, Soybean ([21]; 500 g ai/ha, postemergence) | Plant response rating, Soybean ([21]; Postemergence, 125 g ai/ha) | Plant response rating, Galium ([23]; 500 g ai/ha, postemergence) | Plant response rating, Galium ([23]; Postemergence, 125 g ai/ha)
20: Plant response rating, Ragweed [8] | Plant response rating, Soybean [10] | Plant response rating, Barnyardgrass ([12]; Postemergence, 125 g ai/ha) | Plant response rating, Oat, Wild ([17]; 500 g ai/ha, postemergence) | Plant response rating, Wheat ([22]; 500 g ai/ha, postemergence) | Plant response rating, Wheat ([22]; Postemergence, 125 g ai/ha)
40: Plant response rating, Barnyardgrass [1] | Plant response rating, Kochia ([16]; Postemergence, 125 g ai/ha) | Plant response rating, Ryegrass, Italian ([20]; Postemergence, 125 g ai/ha)
0: Plant response rating, Blackgrass [2] | Corn plant response rating [3] | Plant response rating, Corn [3] | Kochia plant response rating [5] | Plant response rating, Kochia [5] | Oat, Wild plant response rating [6] | Plant response rating, Oat, Wild [6] | Soybean plant response rating [10] | Wheat plant response rating [11] | Plant response rating, Wheat [11] | Plant response rating, Oat, Wild ([17]; Postemergence, 125 g ai/ha) | Plant response rating, Ragweed ([19]; Postemergence, 125 g ai/ha) | Plant response rating, Horseweed ([24]; 500 g ai/ha, postemergence) | Plant response rating, Horseweed ([24]; Postemergence, 125 g ai/ha) | Plant response rating, Barnyardgrass (Flood) [25] | Plant response rating, Ducksalad (Flood) [26] | Plant response rating, Rice (Flood) [27] | Plant response rating, Sedge, Umbrella (Flood) [28]
90: Plant response rating, Pigweed, Palmer ([18]; 500 g ai/ha, postemergence)
10: Plant response rating, Corn ([14]; 500 g ai/ha, postemergence) | Plant response rating, Corn ([14]; Postemergence, 125 g ai/ha)
70: Ryegrass, Italian plant response rating [9] | Plant response rating, Pigweed, Palmer ([18]; Postemergence, 125 g ai/ha)
